These results are taken from patent US9403800B2, “Compounds for inhibition of cancer cell proliferation” (ChemRegen, Inc., priority 2012, dated 2016).

SMILES strings stand for the structures. pEC50, pIC50: −log10 of the molar value.

Data set [1] concerns Wnt transcriptional activity. Briefly: cell-based Wnt-luciferase reporter assay (SuperTOPFlash). The note with it: for Relative potency for Wnt inhibition: relative to IWR-1, transfected HEK293A cells treated 12 hours, normalized to Renilla. The text has this: “Hit” 1 (FIG. 1) was identified as a Wnt inhibitor in a high-throughput screen of a library of 74,000 compounds using a cell-based Wnt-luciferase reporter assay as a readout of Wnt transcriptional activity. […] Wnt transcriptional activity was monitored in HEK-293T cells using a luciferase-based Wnt reporter (SuperTOPFlash) stimulated by Wnt3a conditioned media.
Medicinal chemical refinement of “hit” 1 was undertaken to improve its potency, maintain non-toxicity, increase water solubility and improve bioavailability. The SAR refinement of functional activity of “hit” 1 on the inhibition of the Wnt pathway was determined using a cell-based Wnt-luciferase reporter assay (described above). with Renilla Luciferase was used as a normalization for transfection efficiency. 6-8 hours after transfection, transfected HEK293A cells were treated with 1 and each analog for 12 hours. Both firefly and renilla luciferase activities were measured using a plate reader. A library of compounds was tested to obtain an SAR for 1. Compound 1 and its analogs are synthesized by a two step synthesis, Scheme 1.
Signaling was tested using a standard luciferase response system for canonical Wnt/β-catenin/TCF signaling. Briefly, we used a cell line that had been transfected with a luciferase reporter gene under the control of the response element of a transcription factor that is activated by association with β-catenin and is the target of canonical Wnt signaling.
For orientation: A reporter such as luciferase makes a cellular process visible.

Data set [2] relates to MCF-7. Description: inhibition of proliferation (PicoGreen DNA assay), MCF-7. The format is cell-based. As to conditions: Homo sapiens, MCF7. As to the method: We tested a subset of the 50 sulfonamide analogues for inhibition of proliferation of the MDA-MB-231, PC-3, MCF-7, and HCT-116 cancer cell lines. Following plating of the cells (24 hrs) in eight identical 96-well plates, the cells were treated with either Compound 1, 4, 15, or vehicle (DMSO) using a dose range of 1.6 to 5000 nM. After the lysis of cells, the cell lysate was resuspended in 25 μl PBS and the DNA was quantified using a PicoGreen assay by measuring fluorescence at Ex490 nm/Em535 nm. Cell proliferation was inhibited by Compounds 1, 4, and 15 for all the cancer cell lines tested with inhibition constants listed in Table 2.

Data set [3] relates to PC-3. Description: stimulation of apoptosis, Caspase 3/7 cleavage (Caspase-Glo Kit), PC-3. The class given is cell-based. The note with it: Homo sapiens, PC-3, 24 hrs. As to the method: Given Compounds 1, 4, and 15 inhibited cancer cell proliferation, we tested whether compounds 1, 4, and 15 stimulated cancer cell apoptosis. The MDA-MB-231, MCF-7, PC-3, and HCT-116 cells were treated with the indicated compounds for 24 hrs. over a dose range from 1.6 to 5000 nM. Apoptosis was then measured by monitoring Caspase 3/7 cleavage (Caspase-Glo Kit).

For data set [4], the system named is PC-3. Description: viability (Alamar Blue), PC-3. The class given is cell-based. The note with it: Homo sapiens; PC-3, 24 hrs. As to the method: Given Compounds 1, 4, and 15 inhibited cancer cell proliferation and stimulated apoptosis, we tested the effects compounds 1, 4, and 15 on cancer cell viability and cytotoxicity. The MDA-MB-231, MCF-7, PC-3, and HCT-116 cells were treated with the indicated compounds for 24 hrs. over a dose range from 1.6 to 5000 nM. Viability and cytotoxicity were then measured by the Alamar Blue and Vibrant Cytotox assays respectively.
For orientation: The colour change of resazurin is a common sign of viable cells or microbes.

Data set [5] deals with PC-3 prostate tumors. Description: PC-3 prostate tumor xenograft. As to conditions: for growth of PC-3 prostate tumors: i.p. 30 mg/kg daily for 19 days. The class given is in vivo, mice. As to the method:
Based on the inhibition of cancer cell proliferation by the disclosed compounds the disclosed compounds likely will inhibit cancer cell migration. […] Following establishment of HCT-116 tumors, daily doses of either Compound 15 or vehicle were administered by i.p. injection at 20 mg/kg for 28 days. […] The weight of the excised HCT-116 tumors was 77% lower for the Compound 15-treated mice relative to the vehicle control on Day 28 of the experiment. […] Following establishment of PC-3 tumors, daily doses of either Compounds 1, 15 or vehicle were administered by i.p. injection at 30 mg/kg for 19 days. […] The weight of the excised PC-3 tumors was 66% for compound 15-treated mice compared to vehicle-treated controls on Day 19 of the experiment.

A short description of data set [6]: in vivo toxicity assessment in rats. As to conditions: 30 mg/kg p.o. daily for one week. The protocol: Compounds of structure I were designed to be chemically and metabolically stable and non-toxic. For example, the alpha methyl group of the quinoxalin ring system protects the sulfonamide from rapid metabolism or hydrolysis. […] We tested Compounds 4 and 15 for toxicity in rats. In one study, we dosed rats with Compound 4 (p.o) daily for one week with 30 mg/kg. In another study, we dosed rats daily for one week with 30 mg/kg Compound 15 by p.o. administration. We monitored the weights of the rats daily over the course of both studies. […] Blood was also obtained from the animals at termination of the experiment.

Data set [7] concerns TGF-signaling pathway. Briefly: TGF-signaling pathway transcriptional activity (selectivity). The format is cell-based.
For data set [8], the system named is canonical Wnt target genes, Cyclin D1 (CCND1), Axin2 (AXIN2), and c-Myc (c-MYC). Briefly: mRNA levels of canonical Wnt target genes in HEK293T and SW480 cells. The class given is cell-based. The note with it: HEK293T and SW480 colorectal cells.
Data set [9] has as its system xenopus embryos. Briefly: xenopus embryo development and marker gene expression. The format is in vivo. From the text: Previous studies highlighted the importance of Wnt pathway signaling in promoting cellular differentiation. Accordingly, the physiological relevance of the Wnt inhibitory functions of 1 was shown by the effect of this compound on the morphology of xenopus embryos during embryonic development. […] Vent2 and Otx2 are regulated by TCF3 during anteroposterior axis specification in xenopus embryos and HIPK2 antagonizes them through phosphorylation of TCF3. These phenotypes are very similar to embryos with TCF3-knockout and contrast to those of HIPK2-knockout. Together, the observations indicate that compound 1 activates HIPK2 to remove TCF proteins from their target DNA via phosphorylation.

Data set [10] deals with SW480 colorectal cancer model cell line. Description: SW480 cell proliferation and cell cycle (InCell 1000). The class given is cell-based, human. The text has this:
Previous studies have shown that the Wnt signaling pathway drives cellular proliferation of a number of cancers through up-regulation of genes for several proteins crucial for cell division including Cyclin D1, c-Myc, etc. and treatment of cancer cells with 1 or analogs decreases cellular proliferation. Accordingly, we examined the effect of 1 and analogs on cell proliferation of human cancer cell lines. […] The results were confirmed by studying the effects of 1 on SW480 human colon cell cycle determined by cell images captured by InCell 1000.

Data set [11] has as its system HEK-293T cells. Briefly: cytotoxicity by leakage of G6PDH, HEK-293T. The format is cell-based.
Data set [12] concerns HEK293 cells. Description: apoptosis in HEK293 cells. As to conditions: upon treatment. The class given is cell-based.
[13] abbreviates: xenopus embryos incubated with compound.

On to `CN1CCN(S(=O)(=O)c2ccc(N3CCCC3=O)cc2)c2ccccc21` [Compound 15, 1-(4-(4-methyl-3,4-dihydroquinoxalin-1(2H)-ylsulfonyl)phenyl)pyrrolidin-2-one], for which the “inhibition of Wnt transcriptional activity, IC50 (class symbol)” value in data set [1] (tested simultaneously with p53 reporter) is “++++ (between 60 to 80% potency compared to IWR-1)”. Also, the pIC50 (as a rule, the IC50 on a negative log10 scale, so that one unit is a factor of ten) in data set [2] was 7.70. The molecule further gave a pIC50 in [3] of 7.49. The molecule also gave a pIC50 in [4] of 7.49. Besides, the “growth of PC-3 prostate tumors” value in data set [5] is recorded as “inhibited the growth of PC-3 prostate tumors”. Besides, the “weight of the excised PC-3 tumors compared to vehicle-treated controls” value in data set [5] (i.p. 30 mg/kg daily, Day 19) is on record as 66%. For the same molecule, in data set [6], the “food or water intake or behavior” value is “no differences in food or water intake or behavior”; the “overall toxicity in healthy rats” value is reported as “nontoxic”; the “toxicity in tissue (liver, heart, kidney, lung and intestine)” value is given as “did not show any indication of toxicity”; the “weights of the rats compared to controls” value is “no differences in the weights of the rats were observed”. In addition, in data set [6] (at termination), the “serum clinical chemistry values compared with vehicle-treated animals” value is “did not alter the clinical chemistry values”.

Consider `O=C1CCCN1c1ccc(S(=O)(=O)N2CCCc3ccccc32)cc1` [Compound 1, 1-(4-(3,4-dihydroquinolin-1(2H)-ylsulfonyl)phenyl)pyrrolidin-2-one], for which the pEC50 – broadly, the EC50 on a negative log10 scale, so that one unit is a factor of ten – in data set [1] (Homo sapiens, HEK-293T cells, SuperTOPFlash stimulated by Wnt3a conditioned media, read-out: inhibition of Wnt transcriptional activity, EC50) is ~7.60. In addition, the “Relative potency for Wnt inhibition” value in data set [1] is recorded as “+++ (between 40 to 60% potency compared to IWR-1)”. In [7], the “transcriptional activity of the TGF-signaling pathway” value is on record as “did not alter the transcriptional activity”. Moreover, in data set [8], the “mRNA levels of canonical Wnt target genes CCND1, AXIN2, c-MYC” value is reported as “decrease in mRNA levels”. Besides, the “posterior development of xenopus embryos” value in [9] (treatment during the mid-blastula transition) is listed as “inhibited posterior development”. The “anterior and ventral expression domain of Vent2” value in data set [9] (setting [13]) is listed as “expanded”. In addition, in [9] (setting [13]), the “anterior marker gene Otx2 expression” value was “decreased anterior marker gene Otx2”. The Ki67 protein levels result in data set [10] (SW480 cells) was “elevated”. Moreover, in [10] (SW480 cells, InCell 1000 images), the cell cycle distribution result was “significantly more cells in G2 and less in G1/S phases”. Also, the “cancer cell proliferation (in words)” value in data set [10] (SW480 colon cancer cell line) is reported as “significantly inhibited cancer cell proliferation”. Further, the values for the pIC50 in [2], in data set [3] and in data set [4] were 7.70, 7.31 and 6.80, respectively. For the same molecule, the “cytotoxicity (leakage of G6PDH)” value in [11] is given as “not cytotoxic”. Besides, in data set [5], the “growth of PC-3 prostate tumors” value is recorded as “inhibited the growth of PC-3 prostate tumors”. The “apoptotic HEK293 cells” value in data set [12] was “increase in apoptotic HEK293 cells”.

For `CC1CCc2ccccc2N1S(=O)(=O)c1ccc(N2CCCC2=O)cc1` (stereo not shown) [Compound 4, 1-(4-(2-methyl-3,4-dihydroquinolin-1(2H)-ylsulfonyl)phenyl)pyrrolidin-2-one], the “Relative potency for Wnt inhibition” value in data set [1] was “++++ (between 60 to 80% potency compared to IWR-1)”. Further, the pIC50 in [2] is 7.40. In data set [3], this molecule gave a pIC50 of 6.93. In addition, the pIC50 in data set [4] was 7.77. Besides, in [6], the “food or water intake or behavior” value is recorded as “no differences in food or water intake or behavior”, the “overall toxicity in healthy rats” value is recorded as “nontoxic” and the “weights of the rats compared to controls” value was “no differences in the weights of the rats were observed”.
